Assay results published in patent publication US20080248511A1, “METHODS TO QUENCH LIGHT FROM OPTICAL REACTIONS” (priority 2007, published 2008).
Like-named read-outs stand apart in the source and are kept apart here.

Key:
Assay type in all cases: biochemical
firefly luciferase [1] = biological target: T1, firefly luciferase (Photinus pyralis, UniProt P08659); experiment: Quaternary ammonium/phosphonium detergent screen, firefly luciferase (Example 5); settings: final conc. 0.03% detergent, Tergitol NP-9 present; for remaining activity at 0.03 %: read-out: Retained Firefly Luciferase Luminescence (%)
T1 sequence (P08659 whole entry): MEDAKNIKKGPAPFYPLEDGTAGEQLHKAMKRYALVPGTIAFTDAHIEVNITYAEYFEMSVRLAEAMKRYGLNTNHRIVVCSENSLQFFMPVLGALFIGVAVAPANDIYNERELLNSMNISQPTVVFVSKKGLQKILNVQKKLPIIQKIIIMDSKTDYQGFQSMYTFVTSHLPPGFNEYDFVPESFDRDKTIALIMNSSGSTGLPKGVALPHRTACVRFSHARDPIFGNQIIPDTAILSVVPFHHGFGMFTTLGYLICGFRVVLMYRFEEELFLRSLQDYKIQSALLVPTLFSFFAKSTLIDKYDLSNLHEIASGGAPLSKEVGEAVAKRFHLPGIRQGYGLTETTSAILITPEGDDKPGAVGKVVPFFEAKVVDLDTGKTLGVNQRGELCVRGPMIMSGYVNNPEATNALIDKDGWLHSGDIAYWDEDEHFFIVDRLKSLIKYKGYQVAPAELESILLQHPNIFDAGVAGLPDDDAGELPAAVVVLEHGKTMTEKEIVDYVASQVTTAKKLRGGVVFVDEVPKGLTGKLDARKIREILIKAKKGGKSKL

Renilla luciferase [2] = biological target: T2, Renilla luciferase (Renilla reniformis, UniProt P27652); experiment: Quaternary ammonium/phosphonium detergent screen, Renilla luciferase (Example 5); settings: final conc. 0.10% detergent; for remaining activity at 0.1 % / Retained Renilla Luciferase Luminescence (%): Tergitol NP-9 present; for remaining activity at 0.1 %: read-out: Retained Renilla Luciferase Luminescence (%)
T2 sequence (P27652 1-311): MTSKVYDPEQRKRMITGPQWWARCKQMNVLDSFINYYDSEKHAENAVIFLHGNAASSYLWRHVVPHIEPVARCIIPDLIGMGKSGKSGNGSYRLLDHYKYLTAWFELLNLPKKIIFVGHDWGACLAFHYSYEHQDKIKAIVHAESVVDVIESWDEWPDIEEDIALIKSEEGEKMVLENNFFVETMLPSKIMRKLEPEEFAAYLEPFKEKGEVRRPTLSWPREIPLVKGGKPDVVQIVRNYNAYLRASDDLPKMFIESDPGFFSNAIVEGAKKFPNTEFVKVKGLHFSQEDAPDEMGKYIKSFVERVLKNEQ
Experimental: (§1) Each detergent was added at 0.2% to a reagent solution containing 50 mM Tricine pH 8.3, 3.5 mM MgSO4, 1 mM CDTA, 30 mM thiourea and 0.5% Tergitol NP-9. This solution or one not containing a detergent inhibitor was used to resuspend the Bright-Glo™ luciferin substrate (Promega).
(§2) The luciferase reactions were initiated by adding 100 μl of the firefly luciferase or Renilla luciferase enzyme solutions to 100 μl of reagent solution. The reactions were performed as described above. […] The detergent concentrations listed refer to the final concentration in the reaction.

firefly luciferase [3] = biological target: T1, firefly luciferase; experiment: Quaternary ammonium/phosphonium detergent screen, firefly luciferase (Example 5); settings: final conc. 0.10% detergent, Tergitol NP-9 present; for remaining activity at 0.1 %: read-out: Retained Firefly Luciferase Luminescence (%)
Experimental: as §1, §2

Renilla luciferase [4] = biological target: T2, Renilla luciferase; experiment: Quaternary ammonium/phosphonium detergent screen, Renilla luciferase (Example 5); settings: final conc. 0.03% detergent; for remaining activity at 0.03 % / Retained Renilla Luciferase Luminescence (%): Tergitol NP-9 present; for remaining activity at 0.03 %: read-out: Retained Renilla Luciferase Luminescence (%)
Renilla luciferase [5] = biological target: T2, Renilla luciferase; experiment: biochemical; settings: 0.5% detergent in Renilla Luciferase Assay Reagent; read-out: Retained Renilla Luciferase Luminescence (%)
Experimental: The retained luminescence for each luciferase was calculated by dividing the luminescence in the presence of the detergent by the luminescence in the absence of the test detergent. The selectivity value for each of the test detergents was determined by dividing the retained firefly luciferase luminescence by the retained Renilla luciferase luminescence.
A set of detergents (Table 2; Sigma-Aldrich) was added at 0.5% (from a 5% or 10% stock solution) to either Luciferase Assay Reagent (Promega) or Renilla Luciferase Assay Reagent (Promega) and allowed to equilibrate at room temperature.
The firefly luciferase and Renilla luciferase enzymes were diluted as follows. Firefly luciferase was diluted to 14 ng/ml in Phosphate Buffered Saline (PBS) containing 0.1% of the protein carrier Prionex® (Pentapharm). Renilla luciferase was diluted to 10 ng/ml in 1× Renilla Luciferase Lysis Buffer (Promega) containing 0.1% Prionex®. The Renilla Luciferase Lysis Buffer […] detergent micelles when using the Renilla Luciferase Assay Reagent. In the absence of other detergents, this prevents sequestering of coelenterazine which inhibits Renilla luciferase-mediated luminescence.
The luciferase reactions were initiated by adding 40 μl of either the firefly or Renilla luciferase enzyme solution to 200 μl of the appropriate reagent solution (firefly luciferase enzyme solution+firefly luciferase reagent solution or Renilla luciferase enzyme solution+Renilla luciferase reagent solution, respectively). The reactions were performed in an opaque white, 96-well plate and luminescence was measured for 0.5 seconds per well using a Turner BioSystems Veritas™ Microplate luminometer. The retained firefly luciferase and Renilla luciferase luminescence, as well as the selectivity values for each detergent, were calculated (Table 2).

Renilla luciferase [6] = biological target: T2, Renilla luciferase; experiment: Detergent titration with Tergitol NP-9, digitonin or no lysing agent, Renilla luciferase (Example 4); settings: for remaining activity at 0.0005 % / remaining activity at 0.005 % / remaining activity at 0.05 %: read-out: Relative Renilla Luc Intensity
Experimental: Renilla luciferase-mediated luminescence was measured from samples containing 9.6 mM phosphate buffer pH 6.8, 2.7 mM KCl, 137 mM NaCl (in PBS), 0.1% gelatin, 75 nM coelentrazine (Promega) and 10.2 ng/ml Renilla luciferase. Reactions contained either no lysing agent, 0.5% Tergitol NP-9 or 20 μg/ml digitonin. The detergents to be tested were titrated to 0.05%, 0.005% or 0.0005% in the reactions prior to the addition of the Renilla luciferase. Renilla luciferase-mediated luminescence was measured as described herein.

firefly luciferase [7] = biological target: T1, firefly luciferase; experiment: Detergent titration with Tergitol NP-9, digitonin or no lysing agent, firefly luciferase (Example 4); settings: read-out: Relative Firefly Luc Intensity; for remaining activity at 0.0005 %: 0.0005% detergent; for remaining activity at 0.005 %: 0.0050% detergent; for remaining activity at 0.05 %: 0.0500% detergent
Experimental: For measurement of firefly luciferase-mediated luminescence, a solution containing 110 mM HEPES pH 7.5, 8 mM MgSO4, 0.05% gelatin, 7.35 ng/ml firefly luciferase (QuantiLum® Luciferase; Promega) and the content of the Steady-Glo Luciferase Substrate (Promega) at the equivalent of 1×, As in the Renilla luciferase reactions, reactions contained either no lysing agent, 0.5% Tergitol NP-9 or 20 μg/ml digitonin. The same detergents were titrated as described above and firefly luciferase-mediated luminescence was measured.

CC=CC[P+](Cc1ccccc1)(c1ccccc1)c1ccccc1.[Br-] [Benzyl-but-2-enyl-diphenyl-phosphonium bromide]
remaining activity at 0.03 % (firefly luciferase [1]): 106%
Selectivity Value (Renilla luciferase [2]): 7.8
remaining activity at 0.1 % (Renilla luciferase [2]): 14%
remaining activity at 0.1 % (firefly luciferase [3]): 109%
Selectivity Value (Renilla luciferase [4]): 2.1
remaining activity at 0.03 % (Renilla luciferase [4]): 50%

CC[N+](CC)(CCC(=O)Nc1c(C)cccc1C)Cc1ccccc1.O=C([O-])c1ccccc1 [Benzyldiethyl(2,6-xylycarbamoylethyl)-ammonium benzoate]
Retained Firefly Luciferase Luminescence (%) (firefly luciferase [1]): 110%
Selectivity Value (Renilla luciferase [2]): 2.2
Retained Renilla Luciferase Luminescence (%) (Renilla luciferase [2]): 46%
Retained Firefly Luciferase Luminescence (%) (firefly luciferase [3]): 102%
Selectivity Value (Renilla luciferase [4]): 1.5
Retained Renilla Luciferase Luminescence (%) (Renilla luciferase [4]): 74%

CCCCCCCCCC[N+](C)(C)Cc1ccccc1.[Cl-] [Benzyldimethyldecylammonium chloride]
remaining activity at 0.03 % (firefly luciferase [1]): 114%
Selectivity Value (Renilla luciferase [2]): 112
remaining activity at 0.1 % (Renilla luciferase [2]): 1%
remaining activity at 0.1 % (firefly luciferase [3]): 112%
Selectivity Value (Renilla luciferase [4]): 6.3
remaining activity at 0.03 % (Renilla luciferase [4]): 18%

CCCCCCCCCCCCCCCC[N+](C)(C)Cc1ccccc1.[Cl-] [Benzyldimethylhexadecylammonium chloride]
remaining activity at 0.03 % (firefly luciferase [1]): 100%
Selectivity Value (Renilla luciferase [2]): 32.2
remaining activity at 0.1 % (Renilla luciferase [2]): 3%
remaining activity at 0.1 % (firefly luciferase [3]): 97%
Selectivity Value (Renilla luciferase [4]): 2.1
remaining activity at 0.03 % (Renilla luciferase [4]): 47%

C[N+](C)(Cc1ccccc1)c1ccccc1.[Br-] [Benzyldimethylphenylammonium bromide]
Retained Firefly Luciferase Luminescence (%) (firefly luciferase [1]): 101%
Selectivity Value (Renilla luciferase [2]): 1.3
Retained Renilla Luciferase Luminescence (%) (Renilla luciferase [2]): 81%
Retained Firefly Luciferase Luminescence (%) (firefly luciferase [3]): 107%
Selectivity Value (Renilla luciferase [4]): 1.3
Retained Renilla Luciferase Luminescence (%) (Renilla luciferase [4]): 78%

CCCCCCCCCCCCCCCC[N+](C)(C)C.[Cl-] [Cetyltrimethylammonium chloride]
remaining activity at 0.5 % (Renilla luciferase [5]): 5.23%
Selective Inhibition (Ff Luc Inh/Ren Luc Inh) (Renilla luciferase [6]; 0.0005% detergent, Dig): 12
remaining activity at 0.0005 % (Renilla luciferase [6]; 0.0005% detergent, Dig): 14%
Selective Inhibition (Ff Luc Inh/Ren Luc Inh) (Renilla luciferase [6]; 0.0005% detergent, Terg): 1.0
remaining activity at 0.0005 % (Renilla luciferase [6]; 0.0005% detergent, Terg): 95%
Selective Inhibition (Ff Luc Inh/Ren Luc Inh) (Renilla luciferase [6]; 0.0005% detergent, Water): 13
remaining activity at 0.0005 % (Renilla luciferase [6]; 0.0005% detergent, Water): 13%
Selective Inhibition (Ff Luc Inh/Ren Luc Inh) (Renilla luciferase [6]; 0.0050% detergent, Dig): 2829
remaining activity at 0.005 % (Renilla luciferase [6]; 0.0050% detergent, Dig): 0.02%
Selective Inhibition (Ff Luc Inh/Ren Luc Inh) (Renilla luciferase [6]; 0.0050% detergent, Terg): 1.3
remaining activity at 0.005 % (Renilla luciferase [6]; 0.0050% detergent, Terg): 71%
Selective Inhibition (Ff Luc Inh/Ren Luc Inh) (Renilla luciferase [6]; 0.0050% detergent, Water): 3848
remaining activity at 0.005 % (Renilla luciferase [6]; 0.0050% detergent, Water): 0.02%
remaining activity at 0.05 % (Renilla luciferase [6]; 0.0500% (w:v) detergent, Terg (0.5% Tergitol NP-9)): 6%
Selective Inhibition (Ff Luc Inh/Ren Luc Inh) (Renilla luciferase [6]; 0.0500% detergent, Dig): 1395
remaining activity at 0.05 % (Renilla luciferase [6]; 0.0500% detergent, Dig (20 μg/ml digitonin)): 0.02%
Selective Inhibition (Ff Luc Inh/Ren Luc Inh) (Renilla luciferase [6]; 0.0500% detergent, Terg): 6
Selective Inhibition (Ff Luc Inh/Ren Luc Inh) (Renilla luciferase [6]; 0.0500% detergent, Water): 1611
remaining activity at 0.05 % (Renilla luciferase [6]; 0.0500% detergent, Water (no lysing agent)): 0.02%
remaining activity at 0.0005 % (firefly luciferase [7]; Dig): 164%
remaining activity at 0.0005 % (firefly luciferase [7]; Terg): 98%
remaining activity at 0.0005 % (firefly luciferase [7]; Water): 179%
remaining activity at 0.005 % (firefly luciferase [7]; Dig): 65%
remaining activity at 0.005 % (firefly luciferase [7]; Terg): 94%
remaining activity at 0.005 % (firefly luciferase [7]; Water): 70%
remaining activity at 0.05 % (firefly luciferase [7]; Dig (20 μg/ml digitonin)): 29%
remaining activity at 0.05 % (firefly luciferase [7]; Terg (0.5% Tergitol NP-9)): 38%
remaining activity at 0.05 % (firefly luciferase [7]; Water (no lysing agent)): 31%
